Reference: US9226929B2, “Pharmaceutically active disubstituted triazine derivatives” (Bayer Intellectual Property GMBH, priority 2011, dated 2016)

Columns and labels:
Assay type in all cases: cell-based
[1] = test system: Hela cells; assay: Cell Viability Assay, Hela cells; details: Homo sapiens, 72 h, Cell Titer Glo, read-out: Cell Viability - Hela cells (activity range), IC50
Experimental: (§1) 3.4 Cell Viability Assays
(§2) Hela- or MDAMB468-Cells were maintained in RPMI 1640 or McCoy's 5A cell culture medium+glutamine (PAN Biotech GmbH, Aidenbach, Germany; order no. PO4-22100; PO4-05500) supplemented with 10% fetal calf serum “Gold” (PAA Laboratories GmbH, Pasching, Austria; order no. A15-151) and grown at 37° C., 5% CO2. For the cell viability assay, cells were seeded with a density of 400 (Hela cells, DSMZ Braunschweig order no. ACC57) or 800 (MDAMB468 cells, ATCC order no. HTB-132) per well in 25 μL in 384-well plates (Greiner Bio-One, Frickenhausen, Germany; order no. 781080). After overnight incubation at 37° C./5% CO2, 25 nL or 75 nL compound were added to each sample well by using BIOMEK FXP Laboratory Automation Workstation (Beckman Coulter, USA). Wells with cells and 0.1% or 0,3% DMSO in culture medium were used as positive controls, wells with cells and 10 μM staurosporine in culture medium were used as negative controls. The cells were incubated with the compounds for 72 h at 37° C./5% CO2. For measurement of cell viability 25 μL Cell Titer Glo reagent (Promega, Madison, USA; order no. G7573), 1:2 diluted with cell culture medium, was added to each well. The 384we11-plates were placed for 2 min on a orbital microplate shaker and incubated for further 10 min at room temperature to stabilize the luminescence signal.
(§3) Luminescence was measured by Envision Plate Reader (Perkin Elmer, USA). IC50 values were calculated with the software Excel Fit (IDBS, Guildford, UK) from 3-fold dilution series comprising at least 8 concentrations in duplicates.

[2] = test system: MDAMB468 cells; assay: Cell Viability Assay, MDAMB468 cells; details: Homo sapiens, MDA-MB-468; 72 h, Cell Titer Glo; read-out: Cell Viability - MDAMB468 cells (activity range), IC50
Experimental: as §1, §2, §3

[3] = test system: NF-kappaB reporter gene activation; assay: NF-kappaB Reporter Assay; details: Homo sapiens; HEK293 cells, pNFkBluc reporter, 20 ng/ml TNF alpha, 5 h; read-out: NF-kappaB activation (activity range), IC50
Experimental: 3.2 NF-kappaB Reporter Assay
Cells were maintained in RPMI cell culture medium+glutamine (PAN Biotech GmbH, Aidenbach, Germany) supplemented with 10% fetal calf serum (PAA Laboratories GmbH, Pasching, Austria) and grown at 37° C., 5% CO2. HEK293 cells grown to 50% confluence were transfected with the Amaxa® Cell Line Nucleofector® Kit V (Lonza, Basel, Switzerland, catalog #VCA-1003). Transfections were performed according to manufacturer's optimized protocol for transfection of HEK293 cells. In brief, 2×10^5 cells were transfected with 5 μg highly purified plasmid DNA. Cells were transfected with a NF-kappa B reporter plasmid (pNFkBluc), pTALluc for control, or pMAXGFP for transfection control. After transfection, cells were taken up in 500 μL RPMI1640 cell culture medium, incubated for 1 h at 37° C., and 4.5 ml DMEM without phenol red were added per transfection. Transfected cells were seeded in 96 well plates (Greiner Bio-One, Frickenhausen, Germany, catalog #655098) with 100 μL cell suspension per well and incubated for 48 h. To each well, 100 μL DMEM with 2× concentrated compound diluted from 10 mM DMSO stocks, or 100 μL DMEM with 0.4% DMSO for control wells, was added. The compounds of general formula (I) summarized in Table 6 were used in this assay. Cells were stimulated with 20 ng/ml TNF alpha, and plates were incubated for 5 h at 37° C./5% CO2. Cell culture supernatants were removed to leave 100 μl medium per well, followed by addition of 100 μl Bright Glo luciferase assay reagent (Promega, Madison, Wis., USA, catalog #E2620), and shaking for 5 minutes in the dark. Luminescence was measured with a Victor Photospectrometer (Perkin Elmer, Waltham, Mass., USA). IC50 values were calculated with the software Excel Fit (IDBS, Guildford, UK) from 2-fold dilution series comprising at least 10 concentrations in duplicates.

[4] = test system: LPS-induced TNF alpha release in PBMCs; assay: TNF alpha Release Assay; details: Homo sapiens, PBMC, 1 μg/mL LPS, 6 h, read-out: TNF alpha release (activity range), IC50
Experimental: 3.3 TNF alpha Release Assay
Freshly isolated peripheral blood mononuclear cells (PBMCs) were seeded in 96-well cell culture plates with 200,000 cells in 100 μl cell culture medium (DMEM cell culture medium+glutamine from PAN Biotech GmbH, Aidenbach, Germany) supplemented with 10% fetal calf serum (PAA Laboratories GmbH, Pasching, Austria) per well and incubated overnight at 37° C., 5% CO2. To each well, 100 μL cell culture medium with 2× concentrated test compounds diluted from 10 mM DMSO stocks, or 100 μL DMEM with 0.4% DMSO for control wells, was added. The compounds of general formula (I) summarized in Table 6 were used in this assay. After incubation for 1 h at 37° C., 5% CO2, cells were stimulated with 1 μg/mL LPS (Lipopolysaccharides, Sigma, catalog #L4391-1 MG; 1 mg/ml stock solution), or left untreated for negative controls, and plates were incubated for 6 h at 37° C./5% CO2. The cell culture plates were centrifuged at 2000 rpm for 5 minutes, and supernatants were transferred to fresh 96-well polypropylene plates. 25 μL of supernatants were transferred into 96-well-plates of the human TNF alpha-tissue culture kit (Meso Scale Discovery, Gaithersburg, Md., USA), and manufacturer's instructions were followed for analysis of TNF alpha levels. […]

Compound	IC50 [1] [µM]	IC50 [2] [µM]	IC50 [3] [µM]	IC50 [4] [µM]
NS(=O)(=O)Cc1cccc(Nc2ncnc(N3CCc4nc[nH]c4C3)n2)c1 [Compound B44, 3-[(4-(6,7-Dihydro-3H-imidazo[4,5-c]pyridin-5(4H)-yl)-1,3,5-triazin-2-yl)amino]benzenemethanesulfonamide]	> 10	> 10		
NS(=O)(=O)Cc1cccc(Nc2ncnc(N3CCCC3c3ccccc3)n2)c1 (racemic) [Compound B33, rac-3-[(4-(2-Phenylpyrrolidin-1-yl)-1,3,5-triazin-2-yl)amino]-benzenemethanesulfonamide]			1 to 10	
NS(=O)(=O)Cc1cccc(Nc2ncnc(N3CCCCC3)n2)c1 [Compound B1, 3-[(4-(Piperidin-1-yl)-1,3,5-triazin-2-yl)amino]benzenemethane sulfonamide]			> 10	> 10
NS(=O)(=O)Cc1cccc(Nc2ncnc(N3CCc4ncccc4C3)n2)c1 [Compound B38, 3-[(4-(7,8-Dihydro-1,6-naphthyridin-6(5H)-yl)-1,3,5-triazin-2-yl)amino]-benzenemethanesulfonamide]			1 to 10	
COC[C@H]1CCCN1c1ncnc(Nc2cccc(CS(N)(=O)=O)c2)n1 [Compound B17, (R)-3-[(4-(2-(Methoxymethyl)pyrrolidin-1-yl)-1,3,5-triazin-2-yl)amino]benzenemethanesulfonamide]			> 10	1 to 10
COC(=O)[C@H]1CCCN1c1ncnc(Nc2cccc(CS(N)(=O)=O)c2)n1 [Compound B21, (R)-Methyl 1-[4-((3-(Sulfamoylmethyl)phenyl)amino)-1,3,5-triazin-2-yl]pyrrolidine-2-carboxylate]			> 10	

Now from value to compound, other results behind:

IC50 [1] [µM]	IC50 [2] [µM]	IC50 [3] [µM]	Compound	IC50 [4] [µM]
1 to 10	1 to 10		NS(=O)(=O)Cc1cccc(Nc2ncnc(N3CCc4ncsc4C3)n2)c1 [Compound B45, 3-[(4-(6,7-Dihydrothiazolo[5,4-c]pyridin-5(4H)-yl)-1,3,5-triazin-2-yl)amino]benzenemethanesulfonamide]	
> 10	> 10		NS(=O)(=O)Cc1cccc(Nc2ncnc(N3Cc4cn[nH]c4C3)n2)c1 [Compound B51, 3-[(4-(Pyrrolo[3,4-c]pyrazol-5(1H,4H,6H)-yl)-1,3,5-triazin-2-yl)amino]-benzenemethanesulfonamide]	
		1 to 10	NS(=O)(=O)Cc1cccc(Nc2ncnc(N3CCCn4nccc43)n2)c1 [Compound B47, 3-[(4-(6,7-Dihydropyrazolo[1,5-a]pyrimidin-4(5H)-yl)-1,3,5-triazin-2-yl)amino]benzenemethanesulfonamide]	
